# Laboratory results reported in patent publication US20230393118A1, “DEVICES AND METHODS FOR MONITORING CELLS, TISSUES, OR ORGANS-ON-A-CHIP” (University of Rochester, priority 2020, published 2023).
# What was measured:
# [1] = estimated in rodents in the literature; cited from earlier work
# [2] = measured plasma drug concentration or target trough, provided by pharmaceutical makers as general guidelines; cited from earlier work
# 16HBE cells = assay: Real-time photonic ring sensor detection of cytokine secretion from 16HBE cells exposed to LPS; type: cell-based, human; settings: LPS 1 μg/mL in DMEM, 30 μL/min for 3 hours, 37° C.
# Procedure: 16HBE cells were seeded on the membrane of the exemplar device and allowed to adhere to the membrane for 3 hours. The device was then connected to a peristaltic pump, which contacted the cells with Dulbecco's Modified Eagles' Medium (DMEM) at a low flow rate (˜30 μL/min) overnight. The next day, the device was set on a temperature-controlled stage (37° C.) and DMEM doped with LPS (at 1 μg/mL) was flowed over the cells (through the top channel) at 30 μL/min for 3 hours. Spectra were measured continuously to observe any shifts in resonance of the photonic ring resonators over time.
# FIG. 1F is a graph with a Y axis showing the wavelength of light resonant in the test and the control ring sensors, with longer wavelengths towards the top, and an X axis showing time in seconds following exposure of the cells to LPS. […]
# FIG. 1G presents graphs showing the results of subtracting the shifts in the […] (indicating non-specific binding) from that of the […] for two cytokines, IL-6 (left graph) and IL-1B (right-hand graph). […] For the reader's attention, it is noted that the scale of the two graphs is different, with much smaller quantities of cytokine being detected in the right-hand graph. […]
# tendon fibroblasts = assay: Tendon fibroblasts seeded on axially-constrained hydrogel treated with TGF-β1; type: cell-based; settings: fibroblasts differentiate into myofibroblasts
# From the text: Subsequently, activation of α-SMA+ve myofibroblasts is evident even after 28 dpi.
molecule,measurement,setting,value
CO[C@H]1C[C@@H]2CC[C@@H](C)[C@@](O)(O2)C(=O)C(=O)N2CCCC[C@H]2C(=O)O[C@H]([C@H](C)C[C@@H]2CC[C@@H](OCCO)[C@H](OC)C2)CC(=O)[C@H](C)/C=C(\C)[C@@H](O)[C@@H](OC)C(=O)[C@H](C)C[C@H](C)/C=C/C=C/C=C/1C [Everolimus],ED50,[1],~0.1 to 2.38 mg/kg
same,Target whole blood trough concentrations (plasma concentrations),[2],5 to 15 ng/mL
CO[C@H]1C[C@@H]2CC[C@@H](C)[C@@](O)(O2)C(=O)C(=O)N2CCCC[C@H]2C(=O)O[C@H]([C@H](C)C[C@@H]2CC[C@@H](O)[C@H](OC)C2)CC(=O)[C@H](C)/C=C(\C)[C@@H](O)[C@@H](OC)C(=O)[C@H](C)C[C@H](C)/C=C/C=C/C=C/1C [Sirolimus],Target whole blood trough concentrations (plasma concentrations),[2],16 to 24 ng/mL
Lipopolysaccharide [LPS],"Time at which secretion of cytokines (IL-6, IL-1β) begins after LPS exposure",16HBE cells,about 70 minutes
TGF-β1: cytokine used to induce myofibroblast differentiation in tendon fibroblasts,α-SMA gene (Acta) expression and hydrogel lateral contraction,tendon fibroblasts,dose-dependent increase
